Results as given in publication PMC3310290 (Bioconjugate Chemistry, 2012).
Values belong to the compound of their own block, whether it stands above or below them. Positions of bridges follow the written chain, without caps; N, C: chain ends. Residues, ends and D or L forms follow the SMILES beside them. *: point of attachment. 5FAM = O=C1OC2(c3ccc(O)cc3Oc3cc(O)ccc32)c2ccc(C(=O)*)cc21; DTPA = O=C(O)CN(CCN(CC(=O)O)CC(=O)O)CCN(CC(=O)O)CC(=O)*; Ahx = NCCCCCC(=O)O

Tests used:
[1] = biological target: T1, fibrin (Homo sapiens, UniProt P02671+P02675+P02679); experiment: Solvent water 1H relaxation rate; type: physicochemical; conditions: 30 μM fibrin, 0.47T, 37°C
T1 sequence (P02671 36-866 limits assumed): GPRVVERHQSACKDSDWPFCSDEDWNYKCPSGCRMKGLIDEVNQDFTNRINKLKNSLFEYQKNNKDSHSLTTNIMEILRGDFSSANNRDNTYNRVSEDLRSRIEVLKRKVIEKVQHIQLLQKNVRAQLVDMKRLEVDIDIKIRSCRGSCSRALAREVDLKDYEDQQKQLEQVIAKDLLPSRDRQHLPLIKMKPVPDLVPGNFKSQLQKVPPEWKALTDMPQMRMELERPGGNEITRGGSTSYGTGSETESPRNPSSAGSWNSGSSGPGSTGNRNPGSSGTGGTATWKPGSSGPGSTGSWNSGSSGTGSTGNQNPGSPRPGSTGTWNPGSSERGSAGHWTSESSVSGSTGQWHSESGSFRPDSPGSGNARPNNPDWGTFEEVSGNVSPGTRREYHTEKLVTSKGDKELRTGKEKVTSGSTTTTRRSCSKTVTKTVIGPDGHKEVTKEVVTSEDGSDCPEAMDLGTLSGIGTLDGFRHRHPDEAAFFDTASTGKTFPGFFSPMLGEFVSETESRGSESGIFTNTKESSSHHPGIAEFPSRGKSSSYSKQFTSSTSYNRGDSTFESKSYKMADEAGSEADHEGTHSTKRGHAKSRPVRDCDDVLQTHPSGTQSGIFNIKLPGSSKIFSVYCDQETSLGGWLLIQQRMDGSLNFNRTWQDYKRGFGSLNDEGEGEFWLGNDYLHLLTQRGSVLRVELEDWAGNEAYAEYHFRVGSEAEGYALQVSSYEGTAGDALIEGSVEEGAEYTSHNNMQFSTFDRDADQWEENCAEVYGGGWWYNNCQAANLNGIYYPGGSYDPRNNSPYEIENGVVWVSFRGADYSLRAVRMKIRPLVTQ
T1 sequence (P02675 45-491 limits assumed): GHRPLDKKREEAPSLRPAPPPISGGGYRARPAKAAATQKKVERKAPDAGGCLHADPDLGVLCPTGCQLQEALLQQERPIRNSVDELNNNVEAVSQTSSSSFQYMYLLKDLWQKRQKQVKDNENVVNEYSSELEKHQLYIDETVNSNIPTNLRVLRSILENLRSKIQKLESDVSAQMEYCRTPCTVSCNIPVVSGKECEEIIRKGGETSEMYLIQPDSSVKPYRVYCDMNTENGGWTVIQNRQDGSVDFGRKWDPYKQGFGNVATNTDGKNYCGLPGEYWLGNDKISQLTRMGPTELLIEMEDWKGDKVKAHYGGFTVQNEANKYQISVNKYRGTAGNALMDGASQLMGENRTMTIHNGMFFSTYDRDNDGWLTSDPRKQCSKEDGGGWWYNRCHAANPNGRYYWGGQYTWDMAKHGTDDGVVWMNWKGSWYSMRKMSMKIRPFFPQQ
T1 sequence (P02679 27-433 limits assumed): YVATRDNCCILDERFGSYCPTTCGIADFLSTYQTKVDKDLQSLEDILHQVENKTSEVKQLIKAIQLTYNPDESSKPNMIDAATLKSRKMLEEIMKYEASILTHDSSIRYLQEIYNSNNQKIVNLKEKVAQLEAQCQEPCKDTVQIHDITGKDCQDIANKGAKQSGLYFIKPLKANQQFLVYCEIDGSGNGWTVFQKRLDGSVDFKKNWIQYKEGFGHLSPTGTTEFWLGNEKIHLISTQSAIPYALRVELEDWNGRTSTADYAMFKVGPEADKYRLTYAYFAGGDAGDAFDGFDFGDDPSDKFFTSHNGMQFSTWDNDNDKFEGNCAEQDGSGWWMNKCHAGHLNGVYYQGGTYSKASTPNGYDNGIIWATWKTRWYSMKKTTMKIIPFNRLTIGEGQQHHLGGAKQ

[2] = biological target: T2, fibrinogen (Homo sapiens, UniProt P02671+P02675+P02679); experiment: Fluorescence polarization, binding to fibrinogen; conditions: fluorescence anisotropy
T2 sequence (P02671 20-629 limits assumed): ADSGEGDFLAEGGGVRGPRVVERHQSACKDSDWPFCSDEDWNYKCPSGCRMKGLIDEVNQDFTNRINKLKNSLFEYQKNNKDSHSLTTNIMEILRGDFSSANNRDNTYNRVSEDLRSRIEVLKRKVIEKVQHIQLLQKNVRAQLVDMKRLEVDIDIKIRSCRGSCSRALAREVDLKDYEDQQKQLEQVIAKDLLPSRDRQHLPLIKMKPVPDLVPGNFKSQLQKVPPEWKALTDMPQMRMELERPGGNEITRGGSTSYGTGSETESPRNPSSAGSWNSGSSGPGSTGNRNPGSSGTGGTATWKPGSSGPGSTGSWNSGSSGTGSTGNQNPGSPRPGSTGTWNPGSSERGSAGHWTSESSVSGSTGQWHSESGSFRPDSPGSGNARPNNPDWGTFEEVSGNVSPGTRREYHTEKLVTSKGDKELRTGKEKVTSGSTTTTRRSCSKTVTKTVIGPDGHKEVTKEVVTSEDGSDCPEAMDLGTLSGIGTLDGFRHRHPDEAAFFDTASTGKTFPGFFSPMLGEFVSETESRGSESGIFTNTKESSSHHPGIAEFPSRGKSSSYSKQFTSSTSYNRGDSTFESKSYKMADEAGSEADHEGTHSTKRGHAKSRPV
T2 sequence (P02675 31-491): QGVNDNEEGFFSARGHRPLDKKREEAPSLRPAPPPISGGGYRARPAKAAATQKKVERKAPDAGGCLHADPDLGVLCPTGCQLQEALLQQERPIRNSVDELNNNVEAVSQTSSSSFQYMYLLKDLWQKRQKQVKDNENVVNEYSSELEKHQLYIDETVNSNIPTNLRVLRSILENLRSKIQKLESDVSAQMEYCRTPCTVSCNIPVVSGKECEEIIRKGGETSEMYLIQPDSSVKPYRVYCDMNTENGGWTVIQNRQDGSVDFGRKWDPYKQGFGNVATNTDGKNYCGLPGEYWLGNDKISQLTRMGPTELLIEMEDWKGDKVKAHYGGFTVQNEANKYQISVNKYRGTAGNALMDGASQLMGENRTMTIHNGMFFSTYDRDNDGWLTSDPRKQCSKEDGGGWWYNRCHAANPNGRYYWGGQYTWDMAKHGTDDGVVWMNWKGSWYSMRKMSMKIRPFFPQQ
T2 sequence (P02679 27-433 limits assumed): T1 sequence (P02679 27-433 limits assumed)

[3] = biological target: T1, fibrin; conditions: ref [15]; cited from earlier work

- enhancement of 1/T1 in fibrin gel compared to buffer [1]: no enhancement of 1/T1
Compound: O=C([O-])CN(CCN(CC(=O)[O-])CC(=O)O)CCN(CC(=O)[O-])CC(=O)O.[Gd+3] [GdDTPA, diethylenetriaminepentaaceto gadolinium(III), reference compound]

Compound: CC[C@H](C)[C@H](NC(=O)[C@H](Cc1c[nH]c2ccccc12)NC(=O)[C@@H]1CSSC[C@H](NC(=O)[C@H](CCC(=O)O)NC(=O)[C@H](Cc2c[nH]c3ccccc23)NC(=O)[C@H](CCC(N)=O)NC(=O)CCCCCNC(=O)c2ccc3c(c2)C(=O)OC32c3ccc(O)cc3Oc3cc(O)ccc32)C(=O)N2CCC[C@H]2C(=O)N[C@@H](Cc2ccc(O)cc2)C(=O)NCC(=O)N[C@@H](CC(C)C)C(=O)N1)C(=O)N[C@@H](CCC(N)=O)C(N)=O [Tn6-2b-Fl, Fluor-Aca-QWECPYGLCWIQ] ({5FAM-Ahx}-QWECPYGLCWIQ-NH2; disulfide 4-9)
- fibrinogen binding weaker than to DD(E) [2]: 400 fold

Compound: DTPA-GYLCGDYTLCPD-NH2 ({DTPA}-GYLCGDYTLCPD-NH2; not fully specified (bridges); cysteine pairing not given here)
- fibrin binding (in words) [3]: No measurable fibrin binding
